Patent US7273848B2, “Apolipoprotein A-I agonists and their use to treat dyslipidemic disorders” (priority 1997, dated 2007)
Non-standard residues stand in square brackets, D forms with d. Residues, ends and D or L forms follow the SMILES beside them. Aib = CC(C)(N)C(=O)O

target: T1, LCAT (purified from human plasma) (Homo sapiens, UniProt P04180); assay: LCAT activation assay; type: biochemical; conditions: LCAT activation as compared with native human ApoA-I (= 100%), equivalent masses
T1 construct: from tissue; host or cells: human plasma
T1 sequence (P04180 25-440): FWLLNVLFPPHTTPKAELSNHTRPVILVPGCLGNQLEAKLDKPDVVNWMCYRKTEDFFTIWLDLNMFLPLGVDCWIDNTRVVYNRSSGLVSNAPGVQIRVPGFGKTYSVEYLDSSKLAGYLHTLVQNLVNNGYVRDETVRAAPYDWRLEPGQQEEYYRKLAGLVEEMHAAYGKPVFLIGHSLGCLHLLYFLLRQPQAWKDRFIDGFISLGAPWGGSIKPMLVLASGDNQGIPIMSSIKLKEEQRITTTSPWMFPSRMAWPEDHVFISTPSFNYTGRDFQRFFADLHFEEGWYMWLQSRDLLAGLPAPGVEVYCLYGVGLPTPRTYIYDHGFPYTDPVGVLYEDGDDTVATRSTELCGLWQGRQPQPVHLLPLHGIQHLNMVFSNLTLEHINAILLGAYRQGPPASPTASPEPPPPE
Description: The peptides synthesized as described in Section 6, supra, were analyzed in vitro for their ability to activate LCAT. In the LCAT assay, substrate vesicles (small unilamellar vesicles or “SUVs”) composed of egg phophatidylcholine (EPC) or 1-Palmitoyl-2-oleyl-phosphatidyl-choline (POPC) and radiolabelled cholesterol are preincubated with equivalent masses either of peptide or ApoA-I (isolated from human plasma). The reaction is initiated by addition of LCAT (purified from human plasma). Native ApoA-I, which was used as positive control, represents 100% activation activity. “Specific activity” (i.e., units of activity (LCAT activation)/unit of mass) of the peptides can be calculated as the concentration of peptide that achieves maximum LCAT activation. For example, a series of concentrations of the peptide (e.g., a limiting dilution) can be assayed to determine the “specific activity” for the peptide—the concentration which achieves maximal LCAT activation (i.e., percentage conversion of cholesterol to cholesterol ester) at a specific timepoint in the assay (e.g., 1 hr.). When plotting percentage conversion of cholesterol at, e.g., 1 hr., against the concentration of peptide used, the “specific activity” can be identified as the concentration of peptide that achieves a plateau on the plotted curve.
The vesicles used in the LCAT assay are SUVs composed of egg phosphatidylcholine (EPC) or 1-palmitoyl-2-oleyl-phosphatidylcholine (POPC) and cholesterol with a molar ratio of 20:1. To prepare a vesicle stock solution sufficient for 40 assays, 7.7 mg EPC (or 7.6 mg POPC; 10 μmol), 78 μg (0.2 μmol) 4-^14C-cholesterol, 116 μg cholesterol (0.3 μmol) are dissolved in 5 ml xylene and lyophilized. Thereafter 4 ml of assay buffer is added to the dry powder and sonicated under nitrogen atmosphere at 4° C. Sonication conditions: Branson 250 sonicator, 10 mm tip, 6×5 minutes; Assay buffer: 10 mM Tris, 0.14 M NaCl, 1 mM EDTA, pH 7.4). The sonicated mixture is centrifuged 6 times for 5 minutes each time at 14,000 rpm (16,000×g) to remove titanium particles. The resulting clear solution is used for the enzyme assay.
For the LCAT purification, dextran sulfate/Mg^2+ treatment of human plasma is used to obtain lipoprotein deficient serum (LPDS), which is sequentially chromatographed on Phenylsepharose, Affigelblue, ConcanavalinA sepharose and anti-ApoA-I affinity chromatography, as summarized for a representative purification in TABLE IX, below: […]

Row | ACTIVITY (%) LCAT [%] | Structure (SMILES)
1 | 10 | CC(C)C[C@H](NC(=O)[C@H](C)NC(=O)[C@H](CCC(=O)O)NC(=O)[C@H](CC(C)C)NC(=O)C(C)(C)NC(=O)[C@H](CCC(=O)O)NC(=O)[C@H](CC(N)=O)NC(=O)[C@H](CC(C)C)NC(=O)[C@H](CCCCN)NC(=O)[C@H](CCC(=O)O)NC(=O)[C@H](Cc1c[nH]c2ccccc12)NC(=O)[C@H](Cc1ccccc1)NC(=O)[C@H](CCC(=O)O)NC(=O)[C@H](CC(=O)O)NC(=O)[C@H](CC(C)C)NC(=O)[C@@H](NC(=O)[C@@H]1CCCN1)C(C)C)C(=O)N[C@@H](CCCCN)C(=O)N[C@@H](CCC(N)=O)C(=O)N[C@@H](CCCCN)C(=O)N[C@@H](CC(C)C)C(=O)N[C@@H](CCCCN)C(=O)O [compound 73, PVLDEFWEKLNEXLEALKQKLK] (H-PVLDEFWEKLNE[Aib]LEALKQKLK-OH)
2 | 10 | CC(C)C[C@H](NC(=O)[C@H](C)NC(=O)[C@H](CCC(=O)O)NC(=O)[C@H](CC(C)C)NC(=O)C(C)(C)NC(=O)[C@H](CCC(=O)O)NC(=O)[C@H](CC(N)=O)NC(=O)[C@H](CC(C)C)NC(=O)[C@H](CCCCN)NC(=O)[C@H](CCC(=O)O)NC(=O)[C@H](CCCNC(=N)N)NC(=O)[C@H](Cc1ccccc1)NC(=O)[C@H](CCCCN)NC(=O)[C@H](CC(=O)O)NC(=O)[C@H](CC(C)C)NC(=O)[C@@H](NC(=O)[C@@H]1CCCN1)C(C)C)C(=O)N[C@@H](CCCCN)C(=O)N[C@@H](CCC(N)=O)C(=O)N[C@@H](CCCCN)C(=O)N[C@@H](CC(C)C)C(=O)N[C@@H](CCCCN)C(=O)O [compound 74, PVLDKFREKLNEXLEALKQKLK] (H-PVLDKFREKLNE[Aib]LEALKQKLK-OH)
3 | 9 | CC(C)C[C@H](NC(=O)[C@H](C)NC(=O)[C@H](CCC(=O)O)NC(=O)[C@H](CC(C)C)NC(=O)C(C)(C)NC(=O)[C@H](CCCCN)NC(=O)[C@H](CC(N)=O)NC(=O)[C@H](CC(C)C)NC(=O)[C@H](CCCCN)NC(=O)[C@H](CCC(=O)O)NC(=O)[C@H](CCCNC(=N)N)NC(=O)[C@H](Cc1ccccc1)NC(=O)[C@H](CCC(=O)O)NC(=O)[C@H](CC(=O)O)NC(=O)[C@H](CC(C)C)NC(=O)[C@@H](NC(=O)[C@@H]1CCCN1)C(C)C)C(=O)N[C@@H](CCCCN)C(=O)N[C@@H](CCC(N)=O)C(=O)N[C@@H](CCCCN)C(=O)N[C@@H](CC(C)C)C(=O)N[C@@H](CCCCN)C(=O)O [compound 77, PVLDEFREKLNKXLEALKQKLK] (H-PVLDEFREKLNK[Aib]LEALKQKLK-OH)
4 | 8 | CC(C)C[C@H](NC(=O)[C@H](C)NC(=O)[C@H](CCC(=O)O)NC(=O)[C@H](CC(C)C)NC(=O)C(C)(C)NC(=O)[C@H](CCC(=O)O)NC(=O)[C@H](CC(N)=O)NC(=O)[C@H](CC(C)C)NC(=O)[C@H](CCCCN)NC(=O)[C@H](CCC(=O)O)NC(=O)[C@H](CCCNC(=N)N)NC(=O)[C@H](Cc1ccccc1)NC(=O)[C@H](CCC(=O)O)NC(=O)[C@H](CC(=O)O)NC(=O)[C@@H](N)CC(C)C)C(=O)N[C@@H](CCCCN)C(=O)N[C@@H](CCC(N)=O)C(=O)N[C@@H](CCCCN)C(=O)N[C@@H](CC(C)C)C(=O)N[C@@H](CCCCN)C(=O)O [compound 82, ~~LDEFREKLNEXLEALKQKLK] (H-LDEFREKLNE[Aib]LEALKQKLK-OH)
5 | 6 | CC(C)C[C@H](NC(=O)[C@H](C)NC(=O)[C@H](Cc1c[nH]c2ccccc12)NC(=O)[C@H](CC(C)C)NC(=O)C(C)(C)NC(=O)[C@H](CCC(=O)O)NC(=O)[C@H](CC(N)=O)NC(=O)[C@H](CC(C)C)NC(=O)[C@H](CCCCN)NC(=O)[C@H](CCC(=O)O)NC(=O)[C@H](CCCNC(=N)N)NC(=O)[C@H](Cc1ccccc1)NC(=O)[C@H](CCC(=O)O)NC(=O)[C@H](CC(=O)O)NC(=O)[C@H](CC(C)C)NC(=O)[C@@H](NC(=O)[C@@H]1CCCN1)C(C)C)C(=O)N[C@@H](CCCCN)C(=O)N[C@@H](CCC(N)=O)C(=O)N[C@@H](CCCCN)C(=O)N[C@@H](CC(C)C)C(=O)N[C@@H](CCCCN)C(=O)O [compound 89, PVLDEFREKLNEXLWALKQKLK] (H-PVLDEFREKLNE[Aib]LWALKQKLK-OH)
6 | 6 | CC(C)C[C@H](NC(=O)[C@H](C)NC(=O)[C@H](CCC(=O)O)NC(=O)[C@H](CC(C)C)NC(=O)C(C)(C)NC(=O)[C@H](CCC(=O)O)NC(=O)[C@H](CC(N)=O)NC(=O)[C@H](CC(C)C)NC(=O)[C@H](CCCCN)NC(=O)[C@H](CCC(=O)O)NC(=O)[C@H](CCCNC(=N)N)NC(=O)[C@H](Cc1ccccc1)NC(=O)[C@H](CCC(=O)O)NC(=O)[C@@H](N)CC(=O)O)C(=O)N[C@@H](CCCCN)C(=O)N[C@@H](CCC(N)=O)C(=O)N[C@@H](CCCCN)C(=O)N[C@@H](CC(C)C)C(=O)N[C@@H](CCCCN)C(=O)O [compound 90, ~~~DEFREKLNEXLEALKQKLK] (H-DEFREKLNE[Aib]LEALKQKLK-OH)
7 | 5 | CC(C)C[C@H](NC(=O)[C@H](C)NC(=O)[C@H](CCC(=O)O)NC(=O)[C@H](CC(C)C)NC(=O)C(C)(C)NC(=O)[C@H](CCC(=O)O)NC(=O)[C@H](CC(N)=O)NC(=O)[C@H](Cc1ccc(O)cc1)NC(=O)[C@H](CC(C)C)NC(=O)[C@H](CCC(=O)O)NC(=O)[C@H](CCCNC(=N)N)NC(=O)[C@H](Cc1ccccc1)NC(=O)[C@H](CCC(=O)O)NC(=O)[C@H](CC(=O)O)NC(=O)[C@H](CC(C)C)NC(=O)[C@@H](NC(=O)[C@@H]1CCCN1)C(C)C)C(=O)N[C@@H](CCCCN)C(=O)N[C@@H](CCC(N)=O)C(=O)N[C@@H](CCCCN)C(=O)N[C@@H](CC(C)C)C(=O)N[C@@H](CCCCN)C(=O)O [compound 92, PVLDEFRELYNEXLEALKQKLK] (H-PVLDEFRELYNE[Aib]LEALKQKLK-OH)
8 | 5 | CC(C)C[C@H](NC(=O)[C@H](C)NC(=O)[C@H](CCCCN)NC(=O)[C@H](CC(C)C)NC(=O)C(C)(C)NC(=O)[C@H](CCC(=O)O)NC(=O)[C@H](CC(N)=O)NC(=O)[C@H](CC(C)C)NC(=O)[C@H](CCCCN)NC(=O)[C@H](CCC(=O)O)NC(=O)[C@H](CCCNC(=N)N)NC(=O)[C@H](Cc1ccccc1)NC(=O)[C@H](CCC(=O)O)NC(=O)[C@H](CC(=O)O)NC(=O)[C@H](CC(C)C)NC(=O)[C@@H](NC(=O)[C@@H]1CCCN1)C(C)C)C(=O)N[C@@H](CCCCN)C(=O)N[C@@H](CCC(N)=O)C(=O)N[C@@H](CCCCN)C(=O)N[C@@H](CC(C)C)C(=O)N[C@@H](CCCCN)C(=O)O [compound 93, PVLDEFREKLNEXLKALKQKLK] (H-PVLDEFREKLNE[Aib]LKALKQKLK-OH)
9 | 5 | CC(C)C[C@H](NC(=O)[C@H](C)NC(=O)[C@H](CCC(=O)O)NC(=O)[C@H](CC(C)C)NC(=O)C(C)(C)NC(=O)[C@H](CC(C)C)NC(=O)[C@H](CC(N)=O)NC(=O)[C@H](CC(C)C)NC(=O)[C@H](CC(C)C)NC(=O)[C@H](CCC(=O)O)NC(=O)[C@H](CCCNC(=N)N)NC(=O)[C@H](Cc1ccccc1)NC(=O)[C@H](CC(C)C)NC(=O)[C@H](CC(=O)O)NC(=O)[C@H](CC(C)C)NC(=O)[C@@H](NC(=O)[C@@H]1CCCN1)C(C)C)C(=O)N[C@@H](CCCCN)C(=O)N[C@@H](CCC(N)=O)C(=O)N[C@@H](CCCCN)C(=O)N[C@@H](CC(C)C)C(=O)N[C@@H](CCCCN)C(=O)O [compound 95, PVLDLFRELLNLXLEALKQKLK] (H-PVLDLFRELLNL[Aib]LEALKQKLK-OH)

Row | Structure (SMILES) | ACTIVITY (%) LCAT [%]
10 | CC(C)C[C@H](NC(=O)[C@H](C)NC(=O)[C@H](CCC(=O)O)NC(=O)[C@H](CC(C)C)NC(=O)C(C)(C)NC(=O)[C@H](CCC(=O)O)NC(=O)[C@H](CC(N)=O)NC(=O)[C@H](CC(C)C)NC(=O)[C@H](CC(C)C)NC(=O)[C@H](CCC(=O)O)NC(=O)[C@H](CCCNC(=N)N)NC(=O)[C@H](Cc1ccccc1)NC(=O)[C@H](CCCCN)NC(=O)[C@H](CC(=O)O)NC(=O)[C@H](CC(C)C)NC(=O)[C@@H](NC(=O)[C@@H]1CCCN1)C(C)C)C(=O)N[C@@H](CCCCN)C(=O)N[C@@H](CCC(N)=O)C(=O)N[C@@H](CCCCN)C(=O)N[C@@H](CC(C)C)C(=O)N[C@@H](CCCCN)C(=O)O [compound 88, PVLDKFRELLNEXLEALKQKLK] (H-PVLDKFRELLNE[Aib]LEALKQKLK-OH) | 7
